The experiment has as its target T1, 14-3-3γ/ChREBP (Homo sapiens, UniProt P61981+Q9NP71).
T1 construct: made in house; host or cells: E. coli NiCo21 (DE3) for 14-3-3 gamma; ChREBP is a synthetic peptide
T1 sequence (P61981 1-247): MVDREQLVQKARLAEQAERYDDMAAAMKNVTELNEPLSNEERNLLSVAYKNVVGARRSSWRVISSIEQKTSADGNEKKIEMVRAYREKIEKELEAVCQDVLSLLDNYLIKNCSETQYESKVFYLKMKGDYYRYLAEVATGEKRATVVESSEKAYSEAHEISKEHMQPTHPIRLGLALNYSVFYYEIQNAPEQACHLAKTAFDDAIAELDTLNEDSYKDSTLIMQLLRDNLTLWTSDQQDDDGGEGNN
T1 sequence (Q9NP71 118-142 partner limits assumed): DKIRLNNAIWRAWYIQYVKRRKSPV
In words: FA ChREBP titration to FITC-labelled peptide with or without 14-3-3 (ternary complex formation). Format: binding. To be noted: for ternary complex formation (anisotropy) on ChREBP titration in presence of 14-3-3γ: ChREBP titrated to preformed complex of 14-3-3γ and FITC-labelled peptide, Fig. 5d. How it is done: performed twice per cycle with 20% v/v piperidine in N,N-dimethylformamide (DMF) for five minutes.
Fmoc-protected amino acids were mixed with 9 equivalents HBTU (0.38 M in DMF) and 15 equivalents of DIPEA, and coupled to the resin for 30 minutes (except pS, which is coupled for 60 minutes).
Peptides 1 and 2e-i were labeled with fluorescein via a 5-(-fluorenylmehyloxycarbonyl-amino)-3-oxapentanoic acid (O1-Pen) linker using 5 equivalents of FITC and 7.5 equivalents of DIPEA reacting overnight with continuous agitation. Removal of protecting groups and cleavage of the resin was performed by incubation in a mixture of trifluoroacetic acid (TFA), H2O, and triisopropylsilane (TIS) (96.5:2.5:1) for 2 hours with continuous agitation, followed by precipitation in an excess of ice-cold […]
Peptides 1 and 2a-d were FITC labeled via a three-step approach. The free amine on the N-terminus was protected as follows: to a solution of di-tert-butyl decarbonate (10 eq, 400 mM) in DCM was added DIEA (10 eq), and solution was added to the resin. Coupling was allowed to proceed for 1 h. At this time, resin was washed 3x with DCM and coupling was repeated as described. […]
All peptides were purified using preparative HP-LC. […] The purity of the samples was assessed using a UV detector at 254 […]
Fluorescence anisotropy (FA) - binary binding studies: 14-3-3γ was titrated in a 2-fold dilution series (starting at 100 or 400 µM 14-3-3γ) to 10 nM of fluorescein-labeled peptide in FA buffer (10 mM HEPES pH 7.4, 150 mM NaCl, 0.1% (v/v) Tween20, 0.1% (w/v) BSA). […]
Measurements were performed directly after plate preparation, using a Tecan Infinite F500 plate reader at room temperature (lex: 485 ± 20 nm; lem: 535 ± 25 nm; mirror: Dichroic 510; flashes: 20; integration time: 50 ms; settle time: 0 ms; gain: optimal; and Z-position: calculated from well). […] All data were analyzed using GraphPad Prism (7.00) for Windows and fitted using a four-parameter logistic model (4PL). Each measurement was performed in three independent experiments, average and standard deviations were calculated in Excel […]

Where a SMILES comes first, the peptide text is derived from it. [ ]: non-standard residue; d: D form. The star is where a group is joined. ξ: configuration not given here. FITC = O=C1OC2(c3ccc(O)cc3Oc3cc(O)ccc32)c2ccc(NC(=S)*)cc21; Phe(4-NO2) = N[C@@H](Cc1ccc([N+](=O)[O-])cc1)C(=O)O; ξAla(4-thiazolyl) = NC(Cc1cscn1)C(=O)O; pS = N[C@@H](COP(=O)(O)O)C(=O)O; β3hS = N[C@@H](CO)CC(=O)O; βAla = NCCC(=O)O

For `C[C@H](NC(=O)[C@H](CCCCN)NC(=O)[C@H](Cc1ccc([N+](=O)[O-])cc1)NC(=O)CCNC(=O)C[C@H](CO)NC(=O)[C@H](Cc1ccc([N+](=O)[O-])cc1)NC(=O)[C@@H](N)COP(=O)(O)O)C(=O)N[C@@H](CCCCNC(=S)Nc1ccc2c(c1)C(=O)OC21c2ccc(O)cc2Oc2cc(O)ccc21)C(N)=O` [2d] (H-[pS][Phe(4-NO2)][β3hS][βAla][Phe(4-NO2)]KAK(FITC)-NH2), the “ternary complex formation (anisotropy) on ChREBP titration in presence of 14-3-3γ” value was “dose-dependent increase in 14-3-3/ChREBP/2d complex formation”. Besides, the “increase in anisotropy on ChREBP titration to FITC-labelled peptide alone” value (no 14-3-3 present, Fig. 5e) is “not observed”.

Take `C[C@H](NC(=O)[C@H](CCCCN)NC(=O)[C@H](Cc1ccc([N+](=O)[O-])cc1)NC(=O)CCNC(=O)C[C@H](CO)NC(=O)[C@H](Cc1ccc([N+](=O)[O-])cc1)NC(=O)[C@H](COP(=O)(O)O)NC(=O)C(N)Cc1cscn1)C(=O)N[C@@H](CCCCNC(=S)Nc1ccc2c(c1)C(=O)OC21c2ccc(O)cc2Oc2cc(O)ccc21)C(N)=O` (stereo partly drawn) [2c] (H-[ξAla(4-thiazolyl)][pS][Phe(4-NO2)][β3hS][βAla][Phe(4-NO2)]KAK(FITC)-NH2): the “ternary complex formation (anisotropy) on ChREBP titration in presence of 14-3-3γ” value was “lack of increase in anisotropy values”.

Source of the values: article PMC9667936, “Functional mapping of the 14-3-3 hub protein as a guide to design 14-3-3 molecular glues” (Chemical Science, 2022).
